The source of these data is patent publication US20250034150A1, “BTK INHIBITORS” (BIOGEN MA INC., priority 2021, published 2025).

Structures can show the parent of a compound that is named as a salt. Where two headings read alike, the source gives them in different places.

One assay has as its target T1, BTK (Homo sapiens, UniProt Q06187).
T1 construct: purchased Upstate 14-552
Put plainly: In Vitro BTK Kinase Assay: Btk-PolyGAT-LS Assay. It is filed as biochemical. The settings on record: active BTK enzyme 0.25 nM, polyGAT 100 nM, 30 minutes, TRF readout; read-out: In Vitro BTK Kinase Assay IC50 Score. The procedure, abridged:
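Active BTK at 0.25 nM phosphorylated 100 nM fluorescein-polyGAT peptide at 10 μM ATP for 30 minutes. Buffer was Tris pH 7.5 with MgCl2, DTT, Triton X-100 and casein, and reactions were stopped with EDTA. Phospho-peptide was detected by Tb-PY20 antibody TR-FRET, and IC50 came from a four-parameter fit normalized to DMSO and EDTA controls.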

For assay [1], the system named is CD69 expression on CD19+ B cells in human whole blood. Put plainly: In Vitro whole blood CD69 Assay. It is filed as cell-based. The settings on record: B-cell, read-out: In Vitro HWB CD69 Assay IC50 Score. As to the method:
Human heparinized venous blood from health donors was aliquoted into 96-well plate and “spiked” with serial dilutions of formula I compounds in DMSO or with DMSO without drug. The final concentration of DMSO in all wells was 0.1%. The plate was incubated at 37° C. for 30 min. Drug-containing samples were stimulated with 0.1 μg/mL mouse anti-human IgD-dextran (1A62) or 20 μg/mL polyclonal rabbit F(ab′)2 anti-human IgD. Phosphate-buffered saline (PBS) was added to the negative control unstimulated sample and the plates were incubated overnight (18 to 22 hours) at 37° C. Cells were stained with fluorochrome-conjugated anti-CD19 and anti-CD69 antibodies. Lyse/fix solution was used to remove red blood cells by hypotonic lysis and to fix the remaining cells, which were then analyzed by flow cytometry. CD19+ B cells were gated and analyzed for CD69 expression.

[2] abbreviates: human heparinized whole blood, anti-human IgD stimulation overnight, CD19+ B cells, flow cytometry.

T1 sequence (Q06187 whole entry): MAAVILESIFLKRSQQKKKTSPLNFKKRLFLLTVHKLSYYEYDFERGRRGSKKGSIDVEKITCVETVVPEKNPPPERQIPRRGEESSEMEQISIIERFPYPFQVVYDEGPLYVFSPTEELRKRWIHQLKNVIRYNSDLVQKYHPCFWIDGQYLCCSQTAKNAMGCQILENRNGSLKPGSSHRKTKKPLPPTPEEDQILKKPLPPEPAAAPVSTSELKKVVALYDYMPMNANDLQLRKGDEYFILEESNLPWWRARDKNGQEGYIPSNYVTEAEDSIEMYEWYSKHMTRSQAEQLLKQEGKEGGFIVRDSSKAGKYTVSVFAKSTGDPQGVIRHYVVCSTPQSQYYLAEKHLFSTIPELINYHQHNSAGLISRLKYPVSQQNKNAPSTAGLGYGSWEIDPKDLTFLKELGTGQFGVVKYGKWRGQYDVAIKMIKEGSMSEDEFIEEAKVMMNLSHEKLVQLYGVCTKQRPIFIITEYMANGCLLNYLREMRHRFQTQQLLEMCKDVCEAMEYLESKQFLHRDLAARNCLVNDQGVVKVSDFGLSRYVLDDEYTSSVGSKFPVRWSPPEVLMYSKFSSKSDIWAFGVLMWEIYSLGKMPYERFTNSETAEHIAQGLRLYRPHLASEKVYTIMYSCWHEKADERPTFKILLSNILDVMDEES

By IC50 is commonly meant the concentration that inhibits the measured activity by half. As for `Cn1cc(-c2cn3nccc3c(-c3ccc(CNC(=O)c4noc(C(C)(C)C)n4)c(F)c3F)n2)cn1` [Example 88, 5-(tert-butyl)-N-(2,3-difluoro-4-(6-(1-methyl-1H-pyrazol-4-yl)pyrazolo[1,5-a]pyrazin-4-yl)benzyl)-1,2,4-oxadiazole-3-carboxamide], the IC50 on BTK is below 1 nM; in assay [1] (setting [2]) it was below 1000 nM.
With `CC(C)(C)c1nc(C(=O)NCc2ccc(-c3nccn4nccc34)cc2Cl)no1` [Example 82, 5-(tert-butyl)-N-(2-chloro-4-(pyrazolo[1,5-a]pyrazin-4-yl)benzyl)-1,2,4-oxadiazole-3-carboxamide], the IC50 on BTK is 1 to 10 nM; in assay [1] (setting [2]) it was 1000 to 10000 nM.
The like results for `CC1CC(CNC(=O)c2noc(C3(C)CC3)n2)CCN1c1nc(-c2cnn(C)c2)cn2nccc12` (stereo not shown) [Example 139, N-((2-methyl-1-(6-(1-methyl-1H-pyrazol-4-yl)pyrazolo[1,5-a]pyrazin-4-yl)piperidin-4-yl)methyl)-5-(1-methylcyclopropyl)-1,2,4-oxadiazole-3-carboxamide] were, in that order, 1 to 10 nM and 1000 to 10000 nM.
Take `Cc1cc(-c2nc(-c3cnn(C)c3)cn3nccc23)ccc1CNC(=O)c1cn(C(C)(C)C)nn1` [Example 16, 1-(tert-butyl)-N-(2-methyl-4-(6-(1-methyl-1H-pyrazol-4-yl)pyrazolo[1,5-a]pyrazin-4-yl)benzyl)-1H-1,2,3-triazole-4-carboxamide]: the values for the IC50 (at BTK; in assay [1] (setting [2])) were below 1 nM and below 1000 nM, respectively.
The like results for `CC(C)(C)c1nc(C(=O)NCc2ccc(-c3nc(N4CCOCC4)cn4nccc34)cc2)no1` [Example 23, 5-(tert-butyl)-N-(4-(6-morpholinopyrazolo[1,5-a]pyrazin-4-yl)benzyl)-1,2,4-oxadiazole-3-carboxamide] were, in that order, 1000 to 10000 nM and 1000 to 10000 nM.
The like results for `Cn1cc(-c2cn3nccc3c(-c3ccc(CNC(=O)c4noc(C(C)(C)C)n4)c(C(F)F)c3)n2)cn1` [Example 86, 5-(tert-butyl)-N-(2-(difluoromethyl)-4-(6-(1-methyl-1H-pyrazol-4-yl)pyrazolo[1,5-a]pyrazin-4-yl)benzyl)-1,2,4-oxadiazole-3-carboxamide] were, in that order, below 1 nM and below 1000 nM.
As to `Cn1cc(-c2cn3nccc3c(-c3cc(F)c(CNC(=O)c4nnn(C(C)(C)C)n4)cc3F)n2)cn1` [Example 99, 2-(tert-butyl)-N-(2,5-difluoro-4-(6-(1-methyl-1H-pyrazol-4-yl)pyrazolo[1,5-a]pyrazin-4-yl)benzyl)-2H-tetrazole-5-carboxamide], the IC50 was below 1 nM on BTK and below 1000 nM in assay [1] (setting [2]).
In the case of `Cn1cc(-c2cn3nccc3c(-c3cc(F)c(CNC(=O)c4cnn(C(C)(C)C)n4)cc3F)n2)cn1` [Example 97, 2-(tert-butyl)-N-(2,5-difluoro-4-(6-(1-methyl-1H-pyrazol-4-yl)pyrazolo[1,5-a]pyrazin-4-yl)benzyl)-2H-1,2,3-triazole-4-carboxamide], the IC50 on BTK is 1 to 10 nM; in assay [1] (setting [2]), 1000 to 10000 nM.
Consider `Cn1cc(-c2cn3nccc3c(-c3ccc(CNC(=O)c4nnc(C(C)(C)C)o4)c(F)c3)n2)cn1` [Example 6, 5-(tert-butyl)-N-(2-fluoro-4-(6-(1-methyl-1H-pyrazol-4-yl)pyrazolo[1,5-a]pyrazin-4-yl)benzyl)-1,3,4-oxadiazole-2-carboxamide], for which the IC50 on BTK is below 1 nM; in assay [1] (Homo sapiens) it was below 1000 nM.
The like results for `Cn1cc(-c2cn3nccc3c(N3CCC(CNC(=O)c4noc(C(C)(C)C)n4)CC3)n2)cn1` [Example 136, 5-(tert-butyl)-N-((1-(6-(1-methyl-1H-pyrazol-4-yl)pyrazolo[1,5-a]pyrazin-4-yl)piperidin-4-yl)methyl)-1,2,4-oxadiazole-3-carboxamide] were, in that order, 1 to 10 nM and below 1000 nM.
As for `Cn1cc(-c2cn3nccc3c(-c3ccc(CN4CCN(CC(C)(C)C)CC4=O)cc3)n2)cn1` [Example 33, 1-(4-(6-(1-methyl-1H-pyrazol-4-yl)pyrazolo[1,5-a]pyrazin-4-yl)benzyl)-4-neopentylpiperazin-2-one], the IC50 at BTK lay in the range of 1 to 10 nM; in assay [1] (setting [2]) it was 1000 to 10000 nM.
Regarding `Cn1cc(-c2cn3nccc3c(-c3ccc(CNC(=O)c4cnn(C(C)(C)C)n4)cc3)n2)cn1` [Example 21, 2-(tert-butyl)-N-(4-(6-(1-methyl-1H-pyrazol-4-yl)pyrazolo[1,5-a]pyrazin-4-yl)benzyl)-2H-1,2,3-triazole-4-carboxamide], the IC50 at BTK was below 1 nM; in assay [1] (setting [2]) it was 1000 to 10000 nM.
As for `Cn1cc(-c2cc3nccn3c(-c3ccc(CNC(=O)c4cn(C(C)(C)C)nn4)cc3)n2)cn1` [Example 59, 1-(tert-butyl)-N-(4-(7-(1-methyl-1H-pyrazol-4-yl)imidazo[1,2-c]pyrimidin-5-yl)benzyl)-1H-1,2,3-triazole-4-carboxamide], the IC50 on BTK was 1 to 10 nM; in assay [1] (setting [2]), below 1000 nM.
`C[C@H]1CN(c2nc(-c3cnn(C)c3)cn3nccc23)CC[C@@H]1CNC(=O)c1noc(C2(C)CC2)n1` (single isomer, unassigned) [Example 148]: the IC50 on BTK lay within 1 to 10 nM; in assay [1] (setting [2]), 1000 to 10000 nM.
The like results for `Cc1cc(-c2nccn3nccc23)ccc1CNC(=O)c1noc(C(C)(C)C)n1` [Example 85, 5-(tert-butyl)-N-(2-methyl-4-(pyrazolo[1,5-a]pyrazin-4-yl)benzyl)-1,2,4-oxadiazole-3-carboxamide] were, in that order, 1 to 10 nM and 1000 to 10000 nM.
The like results for `Cn1cc(-c2cn3nccc3c(-c3ccc(CNC(=O)c4coc(C(C)(C)C)n4)c(F)c3)n2)cn1` [Example 12, 2-(tert-butyl)-N-(2-fluoro-4-(6-(1-methyl-1H-pyrazol-4-yl)pyrazolo[1,5-a]pyrazin-4-yl)benzyl)oxazole-4-carboxamide] were, in that order, below 1 nM and below 1000 nM.
As to `Cn1cc(-c2cn3nccc3c(-c3ccc(CNC(=O)c4cn(C(C)(C)C)nn4)cc3)n2)cn1` [Example 4, 1-(tert-butyl)-N-(4-(6-(1-methyl-1H-pyrazol-4-yl)pyrazolo[1,5-a]pyrazin-4-yl)benzyl)-1H-1,2,3-triazole-4-carboxamide], the values for the IC50 (on BTK; in assay [1] (setting [2])) were below 1 nM and below 1000 nM, respectively.
The like results for `Cc1cc(-c2nc(N3CCN(C)CC3)cn3nccc23)ccc1CNC(=O)c1cn(C(C)(C)C)nn1` [Example 121, 1-(tert-butyl)-N-(2-methyl-4-(6-(4-methylpiperazin-1-yl)pyrazolo[1,5-a]pyrazin-4-yl)benzyl)-1H-1,2,3-triazole-4-carboxamide trifluoroacetate] were, in that order, 10 to 1000 nM and 1000 to 10000 nM.
Turning to `Cn1cc(-c2cn3nccc3c(-c3ccc(CN4CCN(CC(C)(C)C)CC4=O)c(F)c3)n2)cn1` [Example 35, 1-(2-fluoro-4-(6-(1-methyl-1H-pyrazol-4-yl)pyrazolo[1,5-a]pyrazin-4-yl)benzyl)-4-neopentylpiperazin-2-one], the IC50 was 1 to 10 nM at BTK and 1000 to 10000 nM in assay [1] (setting [2]).
The like results for `Cn1cc(-c2cn3nccc3c(N3CC[C@H](CNC(=O)c4coc(C(C)(C)C)n4)[C@H](F)C3)n2)cn1` [Example 153, 2-(tert-butyl)-N-(((3S,4R)-3-fluoro-1-(6-(1-methyl-1H-pyrazol-4-yl)pyrazolo[1,5-a]pyrazin-4-yl)piperidin-4-yl)methyl)oxazole-4-carboxamide] were, in that order, 1 to 10 nM and 1000 to 10000 nM.
